Laboratory results published in patent publication US11873298B2, “Compounds and uses thereof” (JANSSEN PHARMACEUTICA NV, priority 2017, dated 2024).
Values joined by “and” are separate entries in the source; they are usually repeats but may differ in a detail not shown here. Equal entries are not always repeated.

Key:
Assay type in all cases: cell-based
SCD5 = target: T1, SCD5 (Homo sapiens, UniProt Q86SK9); assay: Growth inhibition of humanized yeast strain expressing SCD5 as sole desaturase; details: humanized yeast strain expressing SCD5
T1 construct: host or cells: S. cerevisiae ole1Δ strain (W303 pdr1Δ pdr3Δ background), plasmid pRS316 with TDH3 promoter and CYC1 terminator
T1 sequence (Q86SK9 1-330): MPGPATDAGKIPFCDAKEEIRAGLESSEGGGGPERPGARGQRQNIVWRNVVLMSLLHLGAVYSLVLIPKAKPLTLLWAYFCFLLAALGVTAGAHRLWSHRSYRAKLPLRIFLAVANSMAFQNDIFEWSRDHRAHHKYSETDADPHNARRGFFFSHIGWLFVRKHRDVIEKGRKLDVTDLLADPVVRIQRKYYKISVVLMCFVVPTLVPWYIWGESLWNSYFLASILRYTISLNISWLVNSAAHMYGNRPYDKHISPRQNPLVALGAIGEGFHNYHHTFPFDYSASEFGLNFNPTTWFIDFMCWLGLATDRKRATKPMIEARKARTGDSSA
Outline: (§1)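 OD600 growth read-out. ole1Δ yeast, pdr1Δ pdr3Δ, with Ole1/SCD1/SCD5 on a plasmid; SX-Ura media throughout; 2× cell density 0.02 in CSM-Galactose; DMSO compound dilutions; humidified 30° C.; Ole1 stopped at 24 h, SCD1/SCD5 at 40 h.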

SCD1 = target: T2, SCD1 (Homo sapiens, UniProt O00767); assay: Growth inhibition of humanized yeast strain expressing SCD1 as sole desaturase; details: humanized yeast strain expressing SCD1
T2 construct: host or cells: S. cerevisiae ole1Δ strain (W303 pdr1Δ pdr3Δ background), plasmid pRS316 with TDH3 promoter and CYC1 terminator
T2 sequence (O00767 1-359): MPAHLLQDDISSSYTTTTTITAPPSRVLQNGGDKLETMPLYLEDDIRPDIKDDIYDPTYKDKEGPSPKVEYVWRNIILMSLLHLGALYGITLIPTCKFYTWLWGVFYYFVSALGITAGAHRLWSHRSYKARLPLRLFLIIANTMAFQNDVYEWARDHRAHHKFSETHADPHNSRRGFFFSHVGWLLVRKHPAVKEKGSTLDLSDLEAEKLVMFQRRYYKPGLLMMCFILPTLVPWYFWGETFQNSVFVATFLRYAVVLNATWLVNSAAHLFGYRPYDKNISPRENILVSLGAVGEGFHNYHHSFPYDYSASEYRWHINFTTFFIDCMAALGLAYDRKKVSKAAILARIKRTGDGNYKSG
Outline: as §1

Ole1 = target: T3, Ole1 (Saccharomyces cerevisiae, UniProt P21147); assay: Growth inhibition of yeast strain expressing Ole1 as sole desaturase; details: yeast strain expressing Ole1 as sole desaturase
T3 construct: expressed in transfected cells; host or cells: S. cerevisiae ole1Δ strain (W303 pdr1Δ pdr3Δ background), plasmid pRS316 with TDH3 promoter and CYC1 terminator
T3 sequence (P21147 1-510): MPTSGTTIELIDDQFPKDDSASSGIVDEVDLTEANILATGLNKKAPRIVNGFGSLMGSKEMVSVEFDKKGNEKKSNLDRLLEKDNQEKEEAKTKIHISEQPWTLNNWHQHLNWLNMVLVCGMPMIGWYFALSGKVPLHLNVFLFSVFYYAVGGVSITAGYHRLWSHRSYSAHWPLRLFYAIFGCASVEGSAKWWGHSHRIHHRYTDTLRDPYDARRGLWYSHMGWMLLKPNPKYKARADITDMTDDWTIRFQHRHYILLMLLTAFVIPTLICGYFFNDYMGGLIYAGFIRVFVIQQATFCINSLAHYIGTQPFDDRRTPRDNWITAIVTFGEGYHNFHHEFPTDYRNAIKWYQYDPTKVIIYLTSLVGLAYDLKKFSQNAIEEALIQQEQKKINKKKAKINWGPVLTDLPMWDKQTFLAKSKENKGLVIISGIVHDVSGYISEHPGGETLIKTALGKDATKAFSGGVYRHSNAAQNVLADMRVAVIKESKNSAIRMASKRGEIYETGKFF
Outline: as §1

SMILES	IC50 (SCD5)	SCD5 % Max Inhibition (SCD5)	SCD1 % Max Inhibition (SCD1)	IC50 (Ole1)	OLE1 % Max Inhibition (Ole1)	IC50 (SCD1)
COc1cc(-c2noc(C3CCN(C(=O)CNC(=O)c4ccccc4)CC3)n2)ccc1OC(F)(F)F [Compound 253]	> 45 µM	63.11%	62.07%	> 45 µM	106.42%	
CC(C)(C#N)C1CN(c2noc(C3CCN(C(=O)C4CC(=O)N(c5ccccc5)C4)CC3)n2)C1 (stereo not shown) [Compound 254]	> 45 µM	83.13%	69.80%	> 45 µM	92.77%	> 45 µM
Cc1nn(C)c2cc(-c3noc(C4CCN(C(=O)C5CC(=O)N(CC6COC6)C5)CC4)n3)ccc12 (stereo not shown) [Compound 255]	30 µM	64.50%	72.70%	> 45 µM	96.25%	> 45 µM
Cn1c(=O)n(C)c2cc(-c3noc(C4CCN(C(=O)[C@H]5CC(=O)N(c6ccccn6)C5)CC4)n3)ccc21 [Compound 256]	> 45 µM	72.11%	76.04%	> 45 µM	4.16%	
Cc1nn(C)c2cc(-c3noc(N4CCN(C(=O)c5ccccc5)CC4)n3)ccc12 [Compound 261]	> 45 µM	82.31%	73.42%	> 45 µM	94.41%	
Cc1nn(C)c2cc(-c3noc(N4CCN(C(=O)c5ccccc5Cl)CC4)n3)ccc12 [Compound 262]	> 45 µM	10.38%	41.84%	> 45 µM	23.99%	
Cc1nn(C)c2cc(-c3noc(C4CCN(C(=O)CC(C)(C)C)CC4)n3)ccc12 [Compound 263]	> 45 µM	7.20%	18.81%	> 45 µM	8.71%	
Cc1nn(C)c2cc(-c3noc(C4CCN(C(=O)CC5CC5)CC4)n3)ccc12 [Compound 264]	> 45 µM	7.97%	56.37%	> 45 µM	15.52%	40.8 µM
CC(C)n1ncc2ccc(-c3noc(C4CCN(C(=O)OC(C)(C)C)CC4)n3)cc21 [Compound 265]	> 45 µM	10.96% and 3.97%	76.74% and 54.38%	> 45 µM	103.04% and 83.99%	≥ 45 µM
Cc1nn(C)c2cc(-c3noc(C4CCN(C(=O)COc5ccccc5)CC4)n3)ccc12 [Compound 266]	> 45 µM	9.90%	12.42%	> 45 µM	7.17%	
Cc1nn(C)c2cc(-c3noc(C4CCN(C(=O)CNC(=O)c5ccc(C#N)cc5)CC4)n3)ccc12 [Compound 267]	> 45 µM	11.33%	58.58%	> 45 µM	4.64%	37.8 µM
Cc1nn(C)c2cc(-c3noc(C4CCN(C(=O)CNC(=O)c5cccc(C#N)c5)CC4)n3)ccc12 [Compound 268]	> 45 µM	8.68% and 2.67%	79.03% and 65%	> 45 µM	4.39% and 0.14%	≥ 45 µM
Cc1nn(C)c2cc(-c3noc(C4CCN(C(=O)CNC(=O)c5ccc(Cl)cc5)CC4)n3)ccc12 [Compound 269]	> 45 µM	8.38% and 5.30%	38.78% and 25.11%	> 45 µM	6.62% and 4.57%	
Cc1nn(C)c2cc(-c3noc(N4CCN(C(=O)c5cccc(F)c5)CC4)n3)ccc12 [Compound 270]	> 45 µM	12.30%	82.42%	41.8 µM	63.00%	
Cc1nn(C)c2cc(-c3noc(C4CCN(C(=O)CNC(=O)c5ccccc5C(F)(F)F)CC4)n3)ccc12 [Compound 271]	> 45 µM	53.6%	67.9%	> 45 µM	11.7%	
Cc1nn(C)c2cc(-c3noc(C4CCN(C(=O)Oc5ccccc5)CC4)n3)ccc12 [Compound 272]	> 45 µM	51.9%	70.8%	> 45 µM	40.3%	
COC(=O)N1CCC(c2nc(-c3ccc4c(C)nn(C)c4c3)no2)CC1 [Compound 273]	> 45 µM	55.0%	67.9%	> 45 µM	78.7%	
COc1ccc(-c2noc(C3CCN(C(=O)CNC(=O)c4ccccc4)CC3)n2)cc1OC(C)C [Compound 274]	> 45 µM	67.0%	75.3%	> 45 µM	75.9%	
Cc1nn(C)c2cc(-c3noc(C4CCN(C(=O)C5CC(=O)N(c6ccc(F)cn6)C5)CC4)n3)ccc12 (stereo not shown) [Compound 275]	> 45 µM	78.05%	76.51%	> 45 µM	11.24%	> 45 µM
CC(C)n1cc2ccc(-c3noc(C4CCN(C(=O)OC(C)(C)C)CC4)n3)cc2n1 [Compound 277]	> 45 µM	74.99%	76.49%	> 45 µM	94.36%	
Cc1nn(C)c2cc(-c3noc(N4CCN(C(=O)c5cc(F)ccc5Cl)CC4)n3)ccc12 [Compound 278]	> 45 µM	10.55%	32.22%	> 45 µM	21.08%	
Cc1nn(C)c2cc(-c3noc(C4CCN(S(=O)(=O)C(C)C)CC4)n3)ccc12 [Compound 279]	> 45 µM	21.97%	43.86%	> 45 µM	83.07%	
Cc1nn(C)c2cc(-c3noc(C4CCN(C(=O)c5ccccc5)CC4)n3)ccc12 [Compound 280]	> 45 µM	8.86%	11.48%	> 45 µM	17.18%	
Cc1nn(C(C)C)c2cc(-c3noc(C4CCN(C(=O)CNC(=O)c5ccccc5)CC4)n3)ccc12 [Compound 281]	> 45 µM	18.03% and 12.39%	84.97% and 68.90%	33.8 µM and > 45 µM	60.23% and 32.09%	≥ 45 µM
Cc1nn(C)c2cc(-c3noc(C4CCN(C(=O)NC(C)(C)C)CC4)n3)ccc12 [Compound 282]	28.9 µM	56.23%	90.54%	> 45 µM	110.18%	
Cc1nn(C)c2cc(-c3noc(C4CCN(C(=O)c5ccccc5C(F)(F)F)CC4)n3)ccc12 [Compound 283]	> 45 µM	9.83%	34.91%	> 45 µM	24.43%	34.6 µM
